Experimental data from patent publication US20100234427A1 (priority 2006, published 2010).
pIC50: −log10 of the molar value. Structures can show the parent of a compound that is named as a salt.

How the values were obtained:
Assay in all cases: biochemical
[1] = molecular target: T1, serotonine (5-HT) reuptake in synaptosomes (Rattus norvegicus, UniProt P31652)
T1 construct: in synaptosomes as described in WO 97/16451; from tissue

[2] = molecular target: T2, noradrenaline (NA) reuptake in synaptosomes (Rattus norvegicus, UniProt Q63380)
T2 construct: in synaptosomes as described in WO 97/16451; from tissue

[3] = molecular target: T3, dopamine (DA) reuptake in synaptosomes (Rattus norvegicus, UniProt P23977)
T3 construct: in synaptosomes as described in WO 97/16451; from tissue
T3 sequence (P23977 whole entry): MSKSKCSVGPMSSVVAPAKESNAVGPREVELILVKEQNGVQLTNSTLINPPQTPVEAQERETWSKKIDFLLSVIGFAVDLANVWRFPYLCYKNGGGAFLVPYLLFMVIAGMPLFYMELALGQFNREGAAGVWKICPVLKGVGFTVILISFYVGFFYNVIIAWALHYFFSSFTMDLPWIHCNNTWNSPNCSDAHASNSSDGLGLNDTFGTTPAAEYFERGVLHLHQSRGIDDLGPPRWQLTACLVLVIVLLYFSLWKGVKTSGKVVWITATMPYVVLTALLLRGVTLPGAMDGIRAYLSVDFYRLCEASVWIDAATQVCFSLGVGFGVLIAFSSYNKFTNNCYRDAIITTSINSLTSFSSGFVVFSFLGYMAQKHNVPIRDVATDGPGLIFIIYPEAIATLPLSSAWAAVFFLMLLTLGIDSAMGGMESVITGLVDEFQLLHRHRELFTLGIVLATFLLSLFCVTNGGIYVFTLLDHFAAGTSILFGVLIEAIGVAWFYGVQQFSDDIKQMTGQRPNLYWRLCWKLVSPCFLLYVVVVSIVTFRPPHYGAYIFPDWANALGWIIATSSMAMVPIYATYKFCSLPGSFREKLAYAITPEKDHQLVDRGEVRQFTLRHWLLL

T1 sequence (P31652 whole entry): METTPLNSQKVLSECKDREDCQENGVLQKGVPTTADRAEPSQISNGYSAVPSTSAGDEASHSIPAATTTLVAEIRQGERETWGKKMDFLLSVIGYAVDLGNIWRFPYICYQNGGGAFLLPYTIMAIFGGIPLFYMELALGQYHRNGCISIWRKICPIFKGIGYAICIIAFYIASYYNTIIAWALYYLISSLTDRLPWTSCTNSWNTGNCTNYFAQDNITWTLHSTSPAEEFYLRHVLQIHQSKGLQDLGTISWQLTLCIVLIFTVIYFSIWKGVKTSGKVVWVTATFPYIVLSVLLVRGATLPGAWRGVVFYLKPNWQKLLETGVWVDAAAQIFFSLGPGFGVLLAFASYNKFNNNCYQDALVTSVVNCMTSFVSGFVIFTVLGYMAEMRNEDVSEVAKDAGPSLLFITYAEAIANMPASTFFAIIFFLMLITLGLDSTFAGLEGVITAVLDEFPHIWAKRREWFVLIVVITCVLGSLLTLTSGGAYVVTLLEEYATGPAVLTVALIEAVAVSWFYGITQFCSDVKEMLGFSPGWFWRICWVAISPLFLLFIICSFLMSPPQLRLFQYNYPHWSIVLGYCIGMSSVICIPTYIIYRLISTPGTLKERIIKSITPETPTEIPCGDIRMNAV
T2 sequence (Q63380 1-617): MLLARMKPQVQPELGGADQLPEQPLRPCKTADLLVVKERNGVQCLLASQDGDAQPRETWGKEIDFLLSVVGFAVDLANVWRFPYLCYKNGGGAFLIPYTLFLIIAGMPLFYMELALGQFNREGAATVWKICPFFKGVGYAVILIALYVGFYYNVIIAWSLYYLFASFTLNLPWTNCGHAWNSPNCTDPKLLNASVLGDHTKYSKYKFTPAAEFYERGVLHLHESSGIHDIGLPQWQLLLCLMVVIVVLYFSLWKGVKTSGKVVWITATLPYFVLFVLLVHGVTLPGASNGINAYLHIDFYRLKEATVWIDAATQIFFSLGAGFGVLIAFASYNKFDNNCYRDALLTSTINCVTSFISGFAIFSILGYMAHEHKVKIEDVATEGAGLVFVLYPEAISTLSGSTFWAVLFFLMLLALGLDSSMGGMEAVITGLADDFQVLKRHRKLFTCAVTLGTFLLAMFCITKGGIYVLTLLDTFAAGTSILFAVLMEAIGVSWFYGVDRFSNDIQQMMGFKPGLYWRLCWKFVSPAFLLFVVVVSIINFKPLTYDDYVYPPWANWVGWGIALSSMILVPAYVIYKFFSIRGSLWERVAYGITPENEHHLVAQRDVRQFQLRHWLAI

CCC(=O)N(CC1CCN(CCc2ccc(F)cc2)CC1)c1ccccc1 [Compound 12j, N-{1-[2-(4-Fluoro-phenyl)-ethyl]-piperidin-4-ylmethyl}-N-phenyl-propionamide fumaric acid salt]
pIC50 [1]: 5.26
pIC50 [2]: 6.55
pIC50 [3]: 6.32
